Experiments:
[1] = test system: H929 cells and CD138+ primary MM cells; experiment: qRT-PCR of B cell and PC markers in MM cells, liquid or BM stroma co-culture; type: cell-based, human
Procedure: FIG. 3A-H depicts the relative concentration of plasma markers BCL6 (FIG. 3A and E), BLIMP-1 (FIG. 3B and F), XBPS-1 (FIG. 3C and G), and CHOP (FIG. 3D and H) in multiple myeloma (MM) cell lines H929 (FIG. 3A-D) or CD138+ MM cells from three different patient samples (FIG. 3E-H) incubated for 5 days either in the absence of stroma (Liquid), with or without AGN (RA receptor antagonist AGN194310, 1 μM), or co-cultured with BM mesenchymal cells (Stroma), with or without R115 (CYP26 inhibitor R115866, 1 μM) or IRX (CYP26-resistant retinoid IRX5183, 1 μM). Expression in untreated liquid conditions was set at 1. Data are representative of 3 independent experiments with similar results and represent the mean ±SEM. *P≤0.05 and **P≤0.01, by repeated-measures 1-way ANOVA for determination of statistical significance between groups; P values were corrected for multiple comparisons using Dunnett's test. Ctrl, control; max, maximum.
(§1) Coculture experiments. 24-well plates were coated with 0.1% gelatin in PBS for 30 min at 37° C. The gelatin solution was removed, and the stromal cells were cultured overnight at a density of 5×10^4 cells/well to obtain a confluent monolayer. At that time, MM cell lines or primary MM cells (1×10^5 in 2 ml) were added to the stroma cultures. The stroma cocultures were incubated at 37° C. in RPMI containing 10% FCS, L-glutamine, and P/S, with or without AGN194310 (1 μM for 5 days), R115866 (1 μM for 5 days), IRX5183 (1 μM for 5 days), or BTZ (2.5 nM for 48 hr).
qRT-PCR. Total RNA was extracted using the RNeasy Mini Kit (QIAGEN) according to the manufacturer's instructions. cDNA was synthesized by reverse transcription using the iScript cDNA Synthesis Kit (Bio-Rad). qRT-PCR was performed with iTaq SYBR Green Supermix (Bio-Rad) using sequence specific primers. Gene expression was normalized to GAPDH, and relative quantification was calculated using ΔΔCt. All experiments were performed in duplicate and run on the Bio-Rad CFX96 machine.
The BM microenvironment (also called “niche”) limits PC differentiation by modulating retinoid signaling. A population of MM progenitors, phenotypically similar to B cells, is intrinsically resistant to BTZ and contributes to MRD and relapse. To investigate whether the BM niche plays a role in determining the phenotype of MM cells, the mRNA expression of B cell and PC markers in MM H929 cell lines (FIG. 3A-D) and MM CD138+ primary cells (FIG. 3E-H) was analyzed following co-culture with mouse BM stroma using human-specific primers. […] In contrast, co-culture of MM cells with BM stroma decreased the mRNA expression of B lymphocyte-induced maturation protein 1 (BLIMP1) and spliced X box-binding protein 1 (XBP1s) (FIG. 3B, C, F, G), which are critical mediators of PC differentiation.
The BM niche regulates hematopoietic stem cell (HSC) differentiation by expressing the retinoid-inactivating enzyme CYP26. CYP26 enzymes were highly expressed in BM mesenchymal cells, while their expression was barely detectable in MM cells. Since retinoid signaling promotes PC differentiation and potentiates Ig secretion, it was determined whether stromal CYP26 is responsible for inducing a B cell phenotype in MM cells. To this end, co-culture conditions were treated with the CYP26 inhibitor R115866 (R115) or the CYP26-resistant RA receptor α-selective (RARα-selective) retinoid IRX5183 (IRX).

RARα = experiment: transactivation assay, agonist activity; details: RARα versus RARβ and RARγ, FIG. 1
Text: Transactivation assays employ expression plasmids encoding the full length receptors RARα, RARβ, and RARγ. Reporter plasmids containing the herpes virus thymidine kinase promoter and the appropriate retinoic acid receptor response element (RAREs) are positioned upstream of an open coding region encoding firefly luciferase.

[2] = test system: H929 cells and primary CD138+ MM cells; experiment: clonogenic or cellular recovery of MM cells after BTZ treatment; type: cell-based, human; details: stroma co-culture, 1 μM for 5 days, then BTZ 2.5 nM
Procedure: FIG. 4A-B depicts the clonogenic recovery (CFU) of H929 cells (FIG. 4A) or cellular recovery of primary CD138+ MM cells from 3 different patient samples (FIG. 4B). MM cells were treated with bortezomib (BTZ; 2.5 nM) for 48 hours after being incubated for 5 days either in the absence of stroma (Liquid), with or without the pan-RAR inhibitor AGN (1 μM), or in the presence of BM mesenchymal cells (Stroma), with or without the CYP26 inhibitor R115 (1 μM) or the CYP26-resistant retinoid IRX (1 μM). Clonogenic or cellular recovery was normalized to each condition in the absence of BTZ.
as §1
Clonogenic assays. After treatment, MM cells were collected, washed with PBS, and plated at a density of 5,000 cells/ml in 1 ml of 1.32% methylcellulose supplemented with 30% FBS, 10% BSA, L-glutamine, P/S, and 0.1 mM β-ME. Cells were plated in triplicate in 35-mm culture dishes, incubated at 37° C., and scored for the presence of colonies 14 days later.
A RA-low microenvironment induces BTZ resistance. To determine whether decreased retinoid signaling contributes to BTZ resistance within the BM niche, MM cell lines and MM CD138+ primary cells were incubated with BM stroma for 5 days, followed by BTZ treatment.

## CC1(C)CCC(C)(C)c2c1cc(C(=O)Nc1cc(F)c(C(=O)O)c(F)c1)c(O)c2Cl [IRX5183]
[1]; liquid conditions compared with BM stroma
  expression of differentiation markers by qRT-PCR or flow cytometry: induced comparable changes, irrespective of the presence or absence of BM stroma
[1]; stroma co-cultures, 1 μM for 5 days
  mRNA expression of B cell and PC markers (BCL6, BLIMP1, XBP1s, CHOP): restored all markers to levels comparable to those of liquid control conditions
RARα
  agonist activity (transactivation): specifically activates RARα
[2]
  effect on stroma-induced BTZ resistance: overcome

Reference: patent US11786555B2, “RAR selective agonists in combination with immune modulators for cancer immunotherapy” (IO THERAPEUTICS, INC., priority 2017, dated 2023)
